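Each compound was tested at five concentrations against cells in 96-well plates for 48 hours. At the GI50, growth is halved.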 Active and inactive are the calls of the source. No stated cut-off is given here; in the data, active = GI50 up to about 1.1 µM and inactive = higher.
Key:
Assay in all cases: DTP human tumour cell line panel, 48 h
[1] = system: COLO 205
[2] = system: EKVX
[3] = system: HCC 2998
[4] = system: HCT-15
[5] = system: IGROV-1
[6] = system: K562
[7] = system: MOLT-4
[8] = system: NCI-H23
[9] = system: NCI-H522
[10] = system: OVCAR-8
[11] = system: RPMI-8226
[12] = system: SF-539
[13] = system: SK-MEL-28
[14] = system: SK-OV-3
[15] = system: SNB-19
[16] = system: SNB-75
[17] = system: SW-620
[18] = system: UACC-62
[19] = system: A498
[20] = system: NCI-H226

Measured: GI50

CCOC(=O)C(NC(=O)CC)(Nc1ccccc1OC)C(F)(F)F (stereo not given)
> 100 µM: [4]
inactive: [1] > 100 µM | [2] > 100 µM | [3] > 100 µM | [5] > 100 µM | [6] > 100 µM | [7] > 100 µM | [8] > 100 µM | [9] > 100 µM | [10] > 100 µM | [11] > 100 µM | [12] > 100 µM | [13] > 100 µM | [14] > 100 µM | [15] > 100 µM | [16] > 100 µM | [17] > 100 µM | [18] > 100 µM

O=c1c(Cc2c(O)oc3cc(O)ccc3c2=O)c(O)oc2cc(O)ccc12
> 100 µM: [4]
inactive: [19] > 100 µM | [1] > 100 µM | [2] > 100 µM | [3] > 100 µM | [5] > 100 µM | [6] 64.9 µM | [7] > 100 µM | [20] > 100 µM | [8] > 100 µM | [10] > 100 µM | [12] > 100 µM | [13] > 100 µM | [14] > 100 µM | [15] > 100 µM | [16] 53.5 µM | [17] > 100 µM | [18] > 100 µM

COc1ccc(/C=N/N=C(N)N)c(C(=O)O)c1OC
inactive: [19] > 100 µM | [1] > 10 µM | [2] > 100 µM | [5] > 10 µM | [6] > 100 µM | [7] > 100 µM | [8] > 100 µM | [9] > 100 µM | [10] > 100 µM | [11] > 100 µM | [12] > 100 µM | [13] > 100 µM | [14] > 100 µM | [15] > 100 µM | [16] > 100 µM | [17] > 100 µM | [18] > 100 µM
> 100 µM: [4]

COc1nc(Cl)c(Cl)c(Cl)n1.COc1nc(Cl)nc(Cl)c1Cl
active: [2] 0.381 µM | [3] 0.252 µM | [6] 0.859 µM | [7] 0.603 µM | [9] 0.675 µM | [11] 0.938 µM
2.19 µM: [4]
inactive: [19] 8.61 µM | [1] 14.2 µM | [5] 4.53 µM | [20] 42.5 µM | [8] 6.71 µM | [10] 2.89 µM | [12] 9.35 µM | [13] 14 µM | [14] 10.3 µM | [15] 4.97 µM | [16] 10.3 µM | [17] 3.62 µM | [18] 8.93 µM

N/C(=C\c1ccc(/C=C(\NC(=O)c2ccccc2)c2nc3c([nH]2)C(=O)c2ccccc2C3=O)cc1)c1nc2c([nH]1)C(=O)c1ccccc1C2=O
13.9 µM: [4]
inactive: [19] 13.6 µM | [1] 14.8 µM | [2] 23.3 µM | [5] 14.8 µM | [6] 14.9 µM | [7] 6.7 µM | [20] 11.5 µM | [8] 14.3 µM | [9] 11.9 µM | [10] 15.8 µM | [11] 4.33 µM | [12] 16.6 µM | [13] 16.8 µM | [14] 24.1 µM | [15] 12.6 µM | [16] 3.65 µM | [17] 20.4 µM | [18] 11.5 µM

N=C(N)Nc1ncccc1[N+](=O)[O-]
inactive: [19] > 100 µM | [1] 21.8 µM | [3] 55.2 µM | [5] > 93.8 µM | [6] > 100 µM | [7] > 100 µM | [20] > 100 µM | [8] > 100 µM | [9] > 100 µM | [10] > 88.3 µM | [11] > 95.1 µM | [12] 53.6 µM | [13] > 100 µM | [14] > 100 µM | [15] > 100 µM | [16] > 100 µM | [17] > 100 µM | [18] > 100 µM
82.2 µM: [4]

OCCNCN(CNCCO)c1nc(N(CNCCO)CNCCO)nc(N(CNCCO)CNCCO)n1
0.0556 µM: [4]
active: [19] 0.0764 µM | [1] 0.0411 µM | [2] 0.0679 µM | [5] 0.0757 µM | [6] 0.04 µM | [7] 0.0873 µM | [20] 0.0802 µM | [8] 0.0655 µM | [9] 0.0653 µM | [10] 0.0755 µM | [12] 0.075 µM | [13] 0.04 µM | [14] 0.0861 µM | [15] 0.0708 µM | [17] 0.04 µM

CCOC(=O)/C(C#N)=C1/SC(C(=O)N/N=C/c2ccc(OC)cc2)=C(N)N1c1ccccc1
active: [6] 0.205 µM | [16] 0.318 µM
inactive: [1] > 100 µM | [3] > 100 µM | [5] 3.1 µM | [7] > 100 µM | [20] > 100 µM | [8] > 100 µM | [9] > 100 µM | [10] > 100 µM | [11] 1.71 µM | [12] 1.16 µM | [13] 35.6 µM | [14] 32.4 µM | [15] > 100 µM | [17] > 100 µM | [18] > 100 µM

Source: ChEMBL document CHEMBL1201862, “PubChem BioAssay data set” (2004)
